Experiments:
[1] = system: THP-1 cells; assay: Viability of THP-1 cells (trypan blue uptake or MTT dye conversion); type: cell-based, human
[2] = system: IL-12; assay: IL-12 ELISA in LPS stimulated THP-1 cells; type: cell-based, human; settings: for % reduction in IL-12 levels: vs LPS control
Protocol: The cells in an 80% confluence culture flask were aspirated and centrifuged at 1500 rpm for 5 mins. The cell pellet was then resuspended in 1 ml of RPMI complete media and 1×10^5 cells/well seeded to each well of the 96 well microtiter plate. After 24 hrs incubation, PMA (10 ng/ml) was added to the 96 well plate to differentiate THP-1 cells to determine the TNF-α production, THP-1 cells were pretreated for 1 hr with idoBR1 or cucumber extract-Q-actin (batch no. […] Post incubation, the cell supernatant from each of the wells was aspirated into sterile micro centrifuge tubes and centrifuged at 1000 rpm for 2-3 mins. The cell supernatant was then used for evaluation of presence of cytokines using ELISA.
ELISA plates coated with antibodies for IL-12, IL-1β, or IL-10 (R&D Systems, USA) were used for the following study. To each well 50 μL of Assay Diluent RD1F was added after mixing well. 200 μL of sample (idoBR1 or extract), or control per well was added and covered with an adhesive strip. Following incubation for 2 hours at room temperature each well was aspirated and washed 4 times with Wash Buffer (400 μl). After the last wash, any remaining Wash Buffer was removed by aspirating or decanting. The plates were inverted and blotted against clean paper towels. To each well 200 μl of appropriate human conjugate was added and these then covered with a new adhesive strip and incubated for 1 hour at room temperature. The aspiration/wash was then repeated. 200 μL of Substrate Solution was then added to each well and further incubated for 20 minutes at room temperature protected from light. 50 μL of Stop Solution was added to each well. The colour in the wells was changed from blue to yellow. OD was measured within 30 minutes at 450 nm.

[3] = system: TNF-α; assay: Production of TNF-α by human monocytic cell line THP-1; type: cell-based; settings: Homo sapiens, THP-1
Protocol: THP-1 cells are commercially available. Cultured cells can be placed in RPMI complete medium in microtitre plates (e.g. […] in 96 well plates) and after 24 hrs incubation, PMA (10 ng/mi) added to 96 well plate to differentiate THP-1 cells and to determine the effects on TNF-α and IL-10 production. The cells should be pre-treated with cucumber extract at, for example, 200 μg/ml to 25 μg/ml followed by 2 hr LPS (100 ng/ml) stimulation. Post incubation, the cell supernatant is aspirated from each of the wells into sterile micro centrifuge tubes and centrifuged at 1000 rpm for 2-3 mins to settle any cells if present. The cell supernatant is then used for evaluation of presence of TNF-α or IL-10 using ELISA. Sandwich ELISA plates coated with suitable antibody are widely available (e.g. R&D Systems, USA).
A second study indicated even greater activity for idoBR1 in human blood (significant at 0.01 μM) with pre-incubation. […] The data clearly indicate that idoBR1 can inhibit the production of TNF-α in human blood. Thus, it appears that it may be a potent anti-inflammatory agent. It also appears that it may be acting via a novel mechanism distinct from the steroid receptor pathways.

[4] = system: phosphorylated ERK 42/44; assay: Western blot of phosphorylated ERK p42/44 in LPS-stimulated THP-1 cells; type: cell-based, human; settings: vs LPS = 1.00
Protocol: THP-1 cells were cultured in RPMI media supplemented with mercaptoethanol & glutamine to get 80% confluence in culture flasks, then they were aspirated and centrifuged at 1500 rpm for 5 mins. The cell pellet was then resuspended in 1 ml of RPMI complete media and counted conventionally using a hemocytometer. The cells (5×106) were incubated with PMA (10 ng/ml) in separate dishes to differentiate THP-1 cells. To determine the protein expression p38 & p42/44, THP-1 cells were pre-treated for 1 hr with idoBR1-100 μg/ml & 50 μg/ml and cucumber extract (Q-actin batch no. B17CF001)—200 μg/ml & 100 μg/ml, followed by 2 hr LPS (1 μg/ml) stimulation. Post incubation, the cells were harvested and whole protein was isolated.
Cell pellets were lysed, and the protein concentration was determined using the Bio-Rad protein determination assay (Bio-Rad). Total cell proteins were subjected to 8% polyacrylamide SDS gel electrophoresis followed by transfer onto polyvinylidene difluoride membranes (Thermoscientific). The membranes were probed with either mouse anti-phospho-p38 mAb (Thermoscientific) or mouse anti-phospho-p42/44 mAb (Thermoscientific), followed by horseradish peroxidase-conjugated goat anti-mouse polyclonal antibodies (Thermoscientific). All immunoblots were visualized by ECL (Amersham Biosciences).

O=C(O)[C@@H]1NC[C@H](O)[C@@H](O)[C@@H]1O [idoBR1, (2R,3R,4R,5S)-3,4,5-trihydroxypiperidine-2-carboxylic acid]
viability of THP-1 cells [1]: did not significantly alter
IL-12 ([2]; 12.5 μg/mL): 104.23 pg/mL
% reduction in IL-12 levels ([2]; 12.5 μg/mL): 11.22%
IL-12 ([2]; 25 μg/mL): 97.37 pg/mL
% reduction in IL-12 levels ([2]; 25 μg/mL): 17.07%
IL-12 ([2]; 50 μg/mL): 92.89 pg/mL
% reduction in IL-12 levels ([2]; 50 μg/mL): 20.88%
IL-12 ([2]; 100 μg/mL): 88.60 pg/mL
% reduction in IL-12 levels ([2]; 100 μg/mL): 24.53%
inhibition at 10 µM ([3]; 10 μM): > 50%
IC50 ([3]; 48 hr preincubation, read-out: IC50 for inhibition of the production of TNF-α by THP-1 cells): 27 nM
Relative expression of p42/44 ([4]; 50 μg/ml): 0.80
Relative expression of p42/44 ([4]; 100 μg/ml): 0.76
